Source: paper PMC6277767, “Broad and Region-Specific Impacts of the Synthetic Cannabinoid CP 55,940 in Adolescent and Adult Female Mouse Brains” (Frontiers in Molecular Neuroscience, 2018)

Test system: CD1 female mouse brain lipidome
Assay: Brain-region lipid levels (HPLC/MS/MS lipidomics) 2 h after single i.p. 3 mg/kg CP 55,940 vs vehicle
Type: in vivo
Design: N-arachidonoyl phenylalanine level, Mean / N-stearoyl tryptophan level, Mean / N-stearoyl proline level, Mean / N-stearoyl leucine level, Mean / N-stearoyl phenylalanine level, Mean / N-stearoyl serine level, Mean / N-stearoyl methionine level, Mean: unit: moles per gram
Protocol: The Bloomington Institutional Animal Care and Use Committee of Indiana University reviewed and approved the animal procedures. Female mice from the CD1 strain were utilized to match our study examining THC’s effects on the brain lipidome ([Leishman et al., 2018]). Mice were given a single i.p. injection of either 3 mg/kg CP or 1:1:18 cremophor:ethanol:saline vehicle (please refer to the section “3 mg/kg CP Is Relevant for Synthetic Cannabinoid Abuse and Has Stronger Effects on the Female Mouse Brain Lipidome During Adolescence” for a justification of dose and use of female mice). Three different age groups were given injections: PND 35 and PND 50 adolescents, and adult mice (PND 113). At least eight mice in each age group received CP and at least eight received vehicle. Matching the THC study time course ([Leishman et al., 2018]), mice were sacrificed via rapid decapitation 2 h after injection. Brains were immediately removed and flash-frozen in liquid nitrogen, and then stored at -80°C until dissections were performed. Brains were dissected on an ice-cold dissection plate into the following regions: STR, HIPP, CER, THAL, CTX, HYP, MID, and STEM. These abbreviations for these brain areas will be used exclusively when discussing the results generated by these specific dissections. Each dissected area was immediately placed in liquid nitrogen and then stored at -80°C until used for lipid extraction.
Tissue extracts were performed as previously described ([Bradshaw et al., 2006]; [Stuart et al., 2013]; [Raboune et al., 2014]; [Leishman et al., 2016a],[b], [2017], [2018]). First, samples were shock frozen in liquid nitrogen, weighed, and transferred to a centrifuge tube. The mass of the largest sample was multiplied by 50 to determine how many milliliters of HPLC-grade methanol (Fisher, Fair Lawn, NJ, United States) to add. Then, samples were spiked with 500 pmol deuterium-labeled NAGly (d8NAGly; Cayman Chemical, Ann Arbor, MI, United States). Samples were placed on ice in darkness for 2 h then individually homogenized and centrifuged at 19,000 × g for 20 min at 20°C. Supernatants were diluted with HPLC water (purified in house) to make a solution of 75% water, 25% supernatant. Lipids were partially purified on C18 solid phase extraction columns (Agilent, Palo Alto, CA, United States). A series of four elutions with 1.5 mL of 60%, 75%, 85%, and 100% methanol were collected ([Stuart et al., 2013]; [Leishman et al., 2016a],[b], [2018]).
As previously described ([Bradshaw et al., 2006]; [Tan et al., 2006]; [Smoum et al., 2010]; [Stuart et al., 2013]; [Tortoriello et al., 2013]; [Raboune et al., 2014]; [Leishman et al., 2016a],[b], [2017], [2018]), samples were analyzed using an Applied Biosystems API 3000 triple quadrupole mass spectrometer with electrospray ionization (Foster City, CA, United States). Using an Agilent XDB-C18 reversed phase analytical column and optimized mobile phase gradients, 20 μL from each elution were chromatographed. Two Shimadzu 10ADvp pumps (Columbia, MD, United States) provided the pressure for gradient elution. Mobile phase A: 20% methanol, 80% water (v/v) and 1 mM ammonium acetate (Sigma, St. Louis, MO, United States). Mobile phase B: 100% methanol, 1 mM ammonium acetate. Every method run began with 0% mobile phase B, reached 100% mobile phase B flowing at 0.2 mL/min, and gradually returned to 0% mobile phase B.
This screening library will be referred to as the lipidome when discussing data from this study. HPLC/MS/MS data were analyzed using Analyst software (Applied Biosystems) ([Bradshaw et al., 2006]; [Tan et al., 2006]; [Stuart et al., 2013]; [Tortoriello et al., 2013]; [Raboune et al., 2014]; [Leishman et al., 2016a],[b], [2017], [2018]). Chromatograms (Supplementary Figure 3) were generated by determining the retention time of analytes from the analytical column with a [M-1] or [M+1] parent peak and a fragmentation peak corresponding to the programmed values. […]

[1] = adult brainstem, 3mg/kg CP 55,940

Question: What does the source list for `CCCCCCC(C)(C)c1ccc([C@@H]2C[C@H](O)CC[C@H]2CCCO)c(O)c1` [CP 55,940]?
Answer: N-stearoyl serine level vs vehicle (adult HIPP): ↓ (1-1.49 times lower than vehicle); PGE2 level vs vehicle (adult HIPP): ↑ (1-1.49 times higher than vehicle); PGE2 mean level in CP group divided by vehicle group (adult HIPP): 1.18; PGF2α level vs vehicle (adult HIPP): ↑ (1-1.49 times higher than vehicle); number of lipids changed (adult HIPP): 12; phosphoLEA level vs vehicle (adult HIPP): ↑ (1-1.49 times higher than vehicle); PGE2 mean level (adult HIPP, CP group): 3.37x10^-10 moles per gram; 6-ketoPGF1α level vs vehicle (adult HYP): ↓↓ (1.50-1.99 times lower than vehicle); N-arachidonoyl GABA level vs vehicle (adult HYP): ↓ (1-1.49 times lower than vehicle); N-arachidonoyl taurine level vs vehicle (adult HYP): ↑ (1-1.49 times higher than vehicle); N-palmitoyl phenylalanine level vs vehicle (adult HYP): ↑↑ (1.50-1.99 times higher than vehicle); PGE2 level vs vehicle (adult HYP): ↑ (1-1.49 times higher than vehicle); PGF2α level vs vehicle (adult HYP): ↓ (1-1.49 times lower than vehicle); number of lipids changed (adult HYP): 7; phosphoLEA level vs vehicle (adult HYP): ↓ (1-1.49 times lower than vehicle); 2-arachidonoyl glycerol level vs vehicle (adult MID): ↓ (1-1.49 times lower than vehicle); 2-linoleoyl glycerol level vs vehicle (adult MID): ↓ (1-1.49 times lower than vehicle); 2-oleoyl glycerol level vs vehicle (adult MID): ↓ (1-1.49 times lower than vehicle); 6-ketoPGF1α level vs vehicle (adult MID): ↑ (1-1.49 times higher than vehicle); Arachidonic acid level vs vehicle (adult MID): ↓ (1-1.49 times lower than vehicle); N-arachidonoyl ethanolamine level vs vehicle (adult MID): ↓ (1-1.49 times lower than vehicle); N-arachidonoyl serine level vs vehicle (adult MID): ↓↓ (1.50-1.99 times lower than vehicle); N-linoleoyl glycine level vs vehicle (adult MID): ↓↓ (1.50-1.99 times lower than vehicle); N-linoleoyl serine level vs vehicle (adult MID): ↓ (1-1.49 times lower than vehicle); N-palmitoyl ethanolamine level vs vehicle (adult MID): ↓ (1-1.49 times lower than vehicle); N-stearoyl ethanolamine level vs vehicle (adult MID): ↑ (1-1.49 times higher than vehicle); PGE2 level vs vehicle (adult MID): ↑ (1-1.49 times higher than vehicle); changes in lipid levels that were decreases (adult MID): 10; changes in lipid levels that were increases (adult MID): 3; percentage of lipids detected that decreased (adult MID): 18.52%; percentage of lipids detected that increased (adult MID): 5.55%; phosphoLEA level vs vehicle (adult MID): ↓ (1-1.49 times lower than vehicle); number of lipids changed (adult MID, 54 detected): 13; 2-arachidonoyl glycerol level vs vehicle (adult STEM): ↓ (1-1.49 times lower than vehicle); 2-linoleoyl glycerol level vs vehicle (adult STEM): ↓ (1-1.49 times lower than vehicle); 2-oleoyl glycerol level vs vehicle (adult STEM): ↓ (1-1.49 times lower than vehicle); 2-palmitoyl glycerol level vs vehicle (adult STEM): ↓ (1-1.49 times lower than vehicle); Arachidonic acid level vs vehicle (adult STEM): ↓ (1-1.49 times lower than vehicle); Linoleic acid level vs vehicle (adult STEM): ↓ (1-1.49 times lower than vehicle); N-arachidonoyl taurine level vs vehicle (adult STEM): ↓ (1-1.49 times lower than vehicle); N-arachidonoyl tyrosine level vs vehicle (adult STEM): ↓↓ (1.50-1.99 times lower than vehicle); N-oleoyl ethanolamine level vs vehicle (adult STEM): ↓ (1-1.49 times lower than vehicle); N-palmitoyl leucine level vs vehicle (adult STEM): ↑ (1-1.49 times higher than vehicle); N-palmitoyl valine level vs vehicle (adult STEM): ↑ (1-1.49 times higher than vehicle); Oleic Acid level vs vehicle (adult STEM): ↓ (1-1.49 times lower than vehicle); PGE2 level vs vehicle (adult STEM): ↓ (1-1.49 times lower than vehicle); number of lipids changed (adult STEM): 13; 2-arachidonoyl glycerol level vs vehicle (adult STR): ↓ (1-1.49 times lower than vehicle); Arachidonic acid level vs vehicle (adult STR): ↓ (1-1.49 times lower than vehicle); N-arachidonoyl ethanolamine level vs vehicle (adult STR): ↓↓ (1.50-1.99 times lower than vehicle); N-docosahexaenoyl ethanolamine level vs vehicle (adult STR): ↓ (1-1.49 times lower than vehicle); N-linoleoyl ethanolamine level vs vehicle (adult STR): ↓ (1-1.49 times lower than vehicle); N-oleoyl ethanolamine level vs vehicle (adult STR): ↓↓ (1.50-1.99 times lower than vehicle); N-oleoyl leucine level vs vehicle (adult STR): ↑ (1-1.49 times higher than vehicle); N-palmitoyl serine level vs vehicle (adult STR): ↓ (1-1.49 times lower than vehicle); number of lipids changed (adult STR): 8; 2-arachidonoyl glycerol level vs vehicle (adult THAL): ↓ (1-1.49 times lower than vehicle); 2-linoleoyl glycerol level vs vehicle (adult THAL): ↓ (1-1.49 times lower than vehicle); 6-ketoPGF1α level vs vehicle (adult THAL): ↑ (1-1.49 times higher than vehicle); Arachidonic acid level vs vehicle (adult THAL): ↓ (1-1.49 times lower than vehicle); N-arachidonoyl GABA level vs vehicle (adult THAL): ↓ (1-1.49 times lower than vehicle); N-arachidonoyl alanine level vs vehicle (adult THAL): ↓↓ (1.50-1.99 times lower than vehicle); N-arachidonoyl ethanolamine level vs vehicle (adult THAL): ↓ (1-1.49 times lower than vehicle); N-arachidonoyl glycine level vs vehicle (adult THAL): ↓↓ (1.50-1.99 times lower than vehicle); N-oleoyl ethanolamine level vs vehicle (adult THAL): ↓ (1-1.49 times lower than vehicle); N-palmitoyl GABA level vs vehicle (adult THAL): ↑ (1-1.49 times higher than vehicle); N-palmitoyl ethanolamine level vs vehicle (adult THAL): ↓ (1-1.49 times lower than vehicle); N-palmitoyl leucine level vs vehicle (adult THAL): ↑ (1-1.49 times higher than vehicle); N-palmitoyl methionine level vs vehicle (adult THAL): ↑ (1-1.49 times higher than vehicle); N-palmitoyl valine level vs vehicle (adult THAL): ↑↑ (1.50-1.99 times higher than vehicle); Oleic Acid level vs vehicle (adult THAL): ↓ (1-1.49 times lower than vehicle); number of lipids changed (adult THAL): 15; changes in PG levels (adult brain): 14; changes in lipoamines derived from AA (adult brain): 20; decreases in 2-acyl glycerol levels (adult brain): 15; decreases in PG levels (adult brain): 8; decreases in free fatty acid levels (adult brain): 11; increases in PG levels (adult brain): 6; percentage of detected lipids modified with acute CP (adult brain, 406 detected): 23.89%; 2-arachidonoyl glycerol, Direction (relative to Veh) [1]: ↓; 2-arachidonoyl glycerol, Magnitude (x Veh level) [1]: 0.78 x Veh level; 2-linoleoyl glycerol Direction (relative to Veh) [1]: ↓; 2-linoleoyl glycerol Magnitude (x Veh level) [1]: 0.76 x Veh level; 2-oleoyl glycerol, Direction (relative to Veh) [1]: ↓; 2-oleoyl glycerol, Magnitude (x Veh level) [1]: 0.82 x Veh level; 2-palmitoyl glycerol, Direction (relative to Veh) [1]: ↓; 2-palmitoyl glycerol, Magnitude (x Veh level) [1]: 0.80 x Veh level; Arachidonic acid, Direction (relative to Veh) [1]: ↓; Arachidonic acid, Magnitude (x Veh level) [1]: 0.86 x Veh level; Linoleic acid, Direction (relative to Veh) [1]: ↓; Linoleic acid, Magnitude (x Veh level) [1]: 0.71 x Veh level; N-arachidonoyl GABA level, Mean [1]: 1.08E-11; N-arachidonoyl alanine level, Mean [1]: 9.45E-13; N-arachidonoyl dopamine level, Mean [1]: BDL; N-arachidonoyl ethanolamine level, Mean [1]: 1.14E-11; N-arachidonoyl glycine level, Mean [1]: 1.87E-12; N-arachidonoyl phenylalanine level, Mean [1]: 5.84E-14; N-arachidonoyl taurine Direction (relative to Veh) [1]: ↓; N-arachidonoyl taurine Magnitude (x Veh level) [1]: 0.94 x Veh level; N-arachidonoyl tyrosine, Direction (relative to Veh) [1]: ↓; N-arachidonoyl tyrosine, Magnitude (x Veh level) [1]: 0.66 x Veh level; N-docosahexaenoyl GABA level, Mean [1]: 7.61E-12
